Patent publication US7582638B2, “Pyrazole-isoquinoline urea derivatives as p38 kinase inhibitors” (Eli Lilly and Company, priority 2005, dated 2009)
Counter-ions that a name gives are not always drawn.

test system: pMAPKAPK2; assay: Inhibition of p-MAPKAPK2 in vitro (anisomycin-stimulated RAW 264.7 cells, ELISA); assay type: cell-based, murine; settings: Mus musculus, RAW264.7, p-MAPKAPK2 in vitro, read-out: IC50
Description: RAW 264.7 cells (a murine monocytic/macrophage line ATCC) are seeded at a density of 50,000 cells/well in 96-well plates with RPMI-1640 medium plus 10% fetal bovine serum (FBS) and allowed to settle and adhere to the bottom of the well for 48 hours. After reaching confluence, cells are treated for 2 hours with 10 serial dilutions of different compounds. A control compound is always included. After 2 hours, anisomicin (100 ug/ml) is added and cells are incubated for 30 minutes at 37° C. under a 5% CO2 atmosphere. Then, cells are fixed and treated with hydrogen peroxide in order to remove endogenous peroxidase. Finally, plates are blocked with FBS, washed, and an ELISA assay is carried out by using an antiphospho-MAPKAPK2 (Thr 334, Cell Signalling, Cat # 3041) antibody and ahP-Conjugated Secondary Antibody. This reaction is detected by using FEMTO (Pierce) which is an enhanced chemiluminiscent substrate ahP that results in rapid kinetic light output and high signal intensity. The compound exemplified in Example 12 is tested essentially as described above and is found to inhibit the pMAPKAPK2 enzyme production with an IC50 of 7 nM.

Row | Structure (SMILES) | IC50
1 | Cc1ccc(-n2nc(C3(C)CC3)cc2NC(=O)Nc2cnc(N3CCN(C(=O)c4c(F)cccc4F)CC3)c3ccccc23)cc1 [Example 3, 1-{1-[4-(2,6-Difluoro-benzoyl)-piperazin-1-yl]-isoquinolin-4-yl}-3-[5-(1-methyl-cyclopropyl)-2-p-tolyl-2H-pyrazol-3-yl]-urea] | 25 nM
2 | COC1(c2cc(NC(=O)Nc3cnc(OC4CCN(C(=O)C5(C)CC5)CC4)c4ccccc34)n(-c3ccc(C)cc3)n2)CC1 [Example 9, 1-[5-(1-Methoxy-cyclopropyl)-2-p-tolyl-2H-pyrazol-3-yl]-3-{1-[1-(1-methyl-cyclopropanecarbonyl)-piperidin-4-yloxy]-isoquinolin-4-yl}-urea mesylate] | 101 nM
3 | Cc1ccc(-n2nc(C3(C)CC3)cc2NC(=O)Nc2cnc(N3CCN(C(=O)C4CC4)CC3)c3ccccc23)cc1 [Example 1, 1-[1-(4-Cyclopropanecarbonyl-piperazin-1-yl)-isoquinolin-4-yl]-3-[5-(1-methyl-cyclopropyl)-2-p-tolyl-2H-pyrazol-3-yl]-urea] | 44 nM
4 | Cc1ccc(-n2nc(C(C)(C)C)cc2NC(=O)Nc2cnc(OC3CCN(C(N)=O)CC3)c3ccccc23)cc1 [Example 23] | 125 nM
